{"source": "patent US20160129034A1", "about": "“COMBINATION OF RO5503781, CAPECITABINE AND OXALIPLANTIN FOR CANCER THERAPY” (HOFFMANN-LA ROCHE INC., priority 2013, published 2016)", "test_system": "LoVo cell line", "test": "LoVo colorectal xenograft in mice: tumor growth inhibition and survival", "assay_type": "in vivo", "conditions": "for % Inhibition (EOS) / % T/C (EOS): end of study; for Mean Tumor Volume: in mm³ (unit assumed)", "procedure": "The LoVo cell line was selected for implantation in mice as it is has activation of the p53-MDM2 pathway but lacks MDM2 amplification or overexpression, which therefore is felt to be more reflective of clinical reality of the colorectal cancer patient population of interest.\nCompound A and the capecitabine/oxaliplatin formulations were as follows. If not explicitly indicated otherwise, the amounts provided below are concentrations [mg/ml]. Compound A is used at concentrations of 10 mg/ml and 12.5 mg/ml. Capecitabine is used at concentrations of 12.5 mg/ml, 25 mg/ml and 50 mg/ml. Oxaliplatin is dosed at 5 mg/kg. The vehicle solutions for compound A and capecitabine are as follows:\nThe following treatment groups were used in the study • 1. Vehicle Control qd×5 po+qd×14 po • 2. Compound A 80 mg/kg qd×5 po • 3. Compound A 100 mg/kg qweekly×3 po • 4. Capecitabine 200 mg/kg qd×14 po • 5. Oxaliplatin 5 mg/kg qweekly ip×2 • 6. Capecitabine 200 mg/kg qd×14po+Oxaliplatin 5 mg/kg qweekly ip×2 • 7. Compound A 80 mg/kg qd×5+Capecitabine 200 mg/kg qd×14 • 8. Compound A 100 mg/kg qweekly×3+Capecitabine 200 mg/kg qd×14 • 9. Compound A 80 mg/kg qd×5+Capecitabine 200 mg/kg qd×14+Oxaliplatin 5 mg/kg qweekly ip×2 • 10. Compound A 100 mg/kg qweekly×3+Capecitabine 200 mg/kg qd×14+Oxaliplatin 5 mg/kg qweekly ip×2", "key": {"[1]": {"conditions": "Capecitabine 200 mg/kg qdx14 po"}, "[2]": {"conditions": "Oxaliplatin 5 mg/kg qweeklyx2 ip"}}, "data": [{"smiles": "CCCCCOC(=O)Nc1nc(=O)n([C@@H]2O[C@H](C)[C@@H](O)[C@H]2O)cc1F", "note": "[Capecitabine, 5′-deoxy-5-fluoro-N-[(pentyloxy)-carbonyl]-cytidine]", "values": [{"measurement": "% Increased Life Span", "setting": "[1]", "value": 36, "unit": "%"}, {"measurement": "% Inhibition (EOS)", "setting": "[1]", "value": 75, "unit": "%"}, {"measurement": "% T/C (EOS)", "setting": "[1]", "value": 25, "unit": "%"}, {"measurement": "Mean Tumor Volume", "setting": "[1]", "value": 129.07}]}, {"smiles": "COc1cc(C(=O)O)ccc1NC(=O)[C@@H]1N[C@@H](CC(C)(C)C)[C@](C#N)(c2ccc(Cl)cc2F)[C@H]1c1cccc(Cl)c1F", "note": "[Cpd. A, 4-{[(2R,3S,4R,5S)-4-(4-Chloro-2-fluoro-phenyl)-3-(3-chloro-2-fluoro-phenyl)-4-cyano-5-(2,2-dimethyl-propyl)-pyrrolidine-2-carbonyl]-amino}-3-methoxy-benzoic acid]", "values": [{"measurement": "% Increased Life Span", "setting": "Cpd A 80 mg/kg qdx5 po", "value": 21, "unit": "%"}, {"measurement": "% Inhibition (EOS)", "setting": "Cpd A 80 mg/kg qdx5 po", "value": 64, "unit": "%"}, {"measurement": "% T/C (EOS)", "setting": "Cpd A 80 mg/kg qdx5 po", "value": 38, "unit": "%"}, {"measurement": "Mean Tumor Volume", "setting": "Cpd A 80 mg/kg qdx5 po", "value": 130.73}, {"measurement": "% Increased Life Span", "setting": "Cpd A 100 mg/kg qwklyx3 po", "value": 21, "unit": "%"}, {"measurement": "% Inhibition (EOS)", "setting": "Cpd A 100 mg/kg qwklyx3 po", "value": 60, "unit": "%"}, {"measurement": "% T/C (EOS)", "setting": "Cpd A 100 mg/kg qwklyx3 po", "value": 40, "unit": "%"}, {"measurement": "Mean Tumor Volume", "setting": "Cpd A 100 mg/kg qwklyx3 po", "value": 130.23}]}, {"smiles": "O=C(O)C(=O)O.[NH-][C@@H]1CCCC[C@H]1[NH-].[Pt+2]", "note": "[Oxaliplatin]", "values": [{"measurement": "% Increased Life Span", "setting": "[2]", "value": 0, "unit": "%"}, {"measurement": "% Inhibition (EOS)", "setting": "[2]", "value": 23, "unit": "%"}, {"measurement": "% T/C (EOS)", "setting": "[2]", "value": 77, "unit": "%"}, {"measurement": "Mean Tumor Volume", "setting": "[2]", "value": 130.60}]}]}
